Results on 1 molecule are retold here after patent US8969298B2, “Liquid preparation of physiologically active peptide” (Daiichi Sankyo Co., Ltd., priority 2004, dated 2015).

A short description of data set [1]: Pharmacokinetics of ghrelin preparations intravenously or subcutaneously administered to cynomolgus monkeys (plasma ghrelin by ELISA). The settings on record: cynomolgus monkey, in vivo, sc, read-out: BA of subcutaneously injected ghrelin. On the procedure:
Preparations No. 5 and No. 33 were subcutaneously administered to separate groups of cynomolgus monkeys and the plasma ghrelin levels were measured. Furthermore, Preparation No. 1 was intravenously administered to another group of cynomolgus monkeys. The plasma ghrelin levels were measured.
Each group consisted of three male monkeys (imported from China) aged 4 to 6 years. Preparations No. 5 and No. 33 were subcutaneously injected in the dorsal skin at a dose of 0.2 mL/body using a syringe and a 26 G needle (each available from Terumo Co., Ltd.).
Using a syringe and a 26 G needle (each available from Terumo Co., Ltd.), Preparation No. 1 was intravenously injected in the forearm vena cephalica at a dose of 2 mL/kg.
In each case, blood samples were collected from the forearm vena cephalica before administration and 5, 10, 15, 30, 40, 60, 90, and 120 minutes after administration. […]
The plasma samples were then analyzed for the ghrelin levels by Enzyme-Linked Immunosolvent Assay (ELISA) using Active Ghrelin ELISA Kit (Cat. No. MM-401, Mitsubishi Kagaku latron Inc.). […]
The results shown in FIG. 7 were used to determine Cmax and Tmax for each liquid preparation. Using the trapezoidal method, the AUC was also calculated for each preparation. […]

Data set [2] in a line: Pharmacokinetics of human ghrelin preparations intravenously, subcutaneously or intramuscularly administered to rats (plasma ghrelin by RIA). The following applies: s.c. Type of data set: in vivo. As to the method:
7-week old, male SD rats (Charles River Laboratories Japan Inc.) were used. A group of three rats was used for the tests. For intravenous administration, these animals each inserted a polyethylene tube (PE-50, Clay Adams Co., Ltd.) in the femoral artery were used. Preparation No. 2 was administered through the tail vain at a dose of 0.5 mL/kg by using a syringe and a 26 G needle (each available from Terumo Co., Ltd.). Blood samples were collected from the polyethylene tube in the femoral artery before administration and 1, 3, 5, 10, 20, 30, 60, and 90 minutes after administration.
Similarly, these animals inserted a polyethylene tube in the femoral artery were used for subcutaneous administration of Preparation No. 3 in the dorsal skin at a dose of 1 mL/kg using a syringe and a 26 G needle. Blood samples were collected from the polyethylene tube in the femoral artery before administration and 5, 10, 20, and 30 minutes after administration.
To each sample, one-hundredth as much of an EDTA.2Na.2H2O solution and one-fiftieth as much of an AEBSF solution were added immediately after collection of the sample. […]
The plasma samples were then analyzed for the ghrelin levels by radioimmunoassay (RIA) using an anti-ghrelin antibody. […] The supernatant was separated and analyzed for radioactivity by a γ-counter (Packard Instruments Co., Ltd.).
The results shown in FIG. 1 were used to determine the following pharmacokinetic parameters for each injection route: the maximum plasma ghrelin concentration (Cmax) and the time it took before the maximum plasma concentration was reached (T). […] Using the trapezoidal method, the area under the concentration curve (AUC) was also calculated for each injection route. […]
As with the examples of subcutaneous administration, these rats, inserted a polyethylene tube in the femoral artery, were intramuscularly administered Preparations No. 3 and No. 13 in the femoral muscle at a dose of 1 mL/kg, using a syringe and a 26 G needle. The blood samples were collected in the same manner as in Comparative Example 2 and the plasma ghrelin levels were measured by RIA method.

Some results are limits rather than exact numbers.

Regarding `CCCCCCCC(=O)OC[C@H](NC(=O)[C@H](CO)NC(=O)CN)C(=O)N[C@@H](Cc1ccccc1)C(=O)N[C@@H](CC(C)C)C(=O)N[C@@H](CO)C(=O)N1CCC[C@H]1C(=O)N[C@@H](CCC(=O)O)C(=O)N[C@@H](Cc1cnc[nH]1)C(=O)N[C@@H](CCC(N)=O)C(=O)N[C@@H](CCCNC(=N)N)C(=O)N[C@H](C(=O)N[C@@H](CCC(N)=O)C(=O)N[C@@H](CCC(N)=O)C(=O)N[C@@H](CCCNC(=N)N)C(=O)N[C@@H](CCCCN)C(=O)N[C@@H](CCC(=O)O)C(=O)N[C@@H](CO)C(=O)N[C@@H](CCCCN)C(=O)N[C@@H](CCCCN)C(=O)N1CCC[C@H]1C(=O)N1CCC[C@H]1C(=O)N[C@@H](C)C(=O)N[C@@H](CCCCN)C(=O)N[C@@H](CC(C)C)C(=O)N[C@@H](CCC(N)=O)C(=O)N1CCC[C@H]1C(=O)N[C@@H](CCCNC(=N)N)C(=O)O)C(C)C` [ghrelin], in data set [1], the bioavailability is ≤ 3%. Also, in data set [2], the “BA of subcutaneously injected ghrelin” value is on record as “at most 5%”. Moreover, the BA of ghrelin worked out at 35.3% in data set [2] (mixed with sodium acetate buffer (pH 4.0)) and 3.4% in data set [2] (mixed with urea as a solubilizing agent).
